According to patent US20180282734A1, “METHODS AND COMPOSITIONS FOR THE TREATMENT OF HEAD AND NECK CANCER” (Children's Hospital Medical Center, priority 2015, published 2018):

Assays:
IRAK1 = molecular target: T1, IRAK1 (Homo sapiens, UniProt P51617); test: Western blot for phospho-IRAK1 after IRAK-1/4 inhibitor treatment (time course); assay type: cell-based; conditions: UMSCC1 and UMSCC47 cells
T1 construct: endogenous in cells; host or cells: UMSCC1 and UMSCC47
Protocol: Western blotting. Whole cell lysates were harvested using Laemmli buffer and a total of 20 μg of protein was analyzed as described previously. Membranes were probed with DEK (1:1000, BD Biosciences, San Jose, Calif., USA), IRAK1 (1:1000, Santa Cruz Biotechnology, Dallas, Tex., USA (sc-7883)), TRAF6 (1:1000, Santa Cruz (sc-7221)), phospho-IRAK1 (Thr209, 1:800, Assay Biotechnology Company (A1074), Sunnyvale, Calif., USA), phospho-p38 (1:500, Cell Signaling Technologies (4361)), p38 (1:1000, Cell Signaling Technologies (9212)), phospho-ERK1/2 (1:1000, Cell Signaling Technologies (4377)), ERK1/2 (1:1000, Cell Signaling Technologies (4695)), phospho-IKKa/r3 (1:500, Cell Signaling Technologies (2697)), IKKa (1:1000, Cell Signaling Technologies (2682)), phospho-hcBa (1:500, Cell Signaling Technologies (9246)), hcBa (1:1000, Cell Signaling Technologies (4812)), a-tubulin-HRP (1:10,000 Cell Signaling Technologies (9099)), actin (1:10,000 a gift from James Lessard), and GAPDH (1:1000, Cell Signaling Technologies (5174)).
IRAK1 inhibitor. […]
Cells and media were collected 72 hours later and prepared and analyzed as above. For the time-course experiment, cells were plated and inhibitor was added the following day, with protein collected at 24, 48, and 72 hours and analyzed by western blot for IRAK1 inhibition.

IRAK1 and IRAK4 = conditions: cited from earlier work
melanoma cells = conditions: in vitro and in vivo; cited from earlier work
MDS = conditions: cited from earlier work
UMSCC1 cells = test: Flow cytometry for cleaved caspase-3 after IRAK1 inhibitor; assay type: cell-based, human; conditions: 72 hours, vs DMSO
Protocol: Flow cytometry for Cleaved Caspase-3. Lentivirally transduced cells were plated at equal densities and collected 48 hours later. Cells were fixed and prepped following the BD FITC Active Caspase-3 Apoptosis kit protocol (BD Biosciences). […] Analysis was performed on a BD FacsCanto and data analyzed on FlowJo software (Tree Star, Ashland, Oreg., USA). Experiments were performed 3 times with standard error of the mean (SEM) represented. IRAK1 inhibitor. UMSCC1 cells were plated at equal densities and IRAK1 inhibitor (IRAK-1/4 inhibitor, 15409, Sigma-Aldrich, St. Louis, Mo., USA) added the same day for caspase-3 flow cytometry experiments. DMSO was added in equal volume for a control. Cells and media were collected 72 hours later and prepared and analyzed as above. For the time-course experiment, cells were plated and inhibitor was added the following day, with protein collected at 24, 48, and 72 hours and analyzed by western blot for IRAK1 inhibition.

T1 sequence (P51617 whole entry): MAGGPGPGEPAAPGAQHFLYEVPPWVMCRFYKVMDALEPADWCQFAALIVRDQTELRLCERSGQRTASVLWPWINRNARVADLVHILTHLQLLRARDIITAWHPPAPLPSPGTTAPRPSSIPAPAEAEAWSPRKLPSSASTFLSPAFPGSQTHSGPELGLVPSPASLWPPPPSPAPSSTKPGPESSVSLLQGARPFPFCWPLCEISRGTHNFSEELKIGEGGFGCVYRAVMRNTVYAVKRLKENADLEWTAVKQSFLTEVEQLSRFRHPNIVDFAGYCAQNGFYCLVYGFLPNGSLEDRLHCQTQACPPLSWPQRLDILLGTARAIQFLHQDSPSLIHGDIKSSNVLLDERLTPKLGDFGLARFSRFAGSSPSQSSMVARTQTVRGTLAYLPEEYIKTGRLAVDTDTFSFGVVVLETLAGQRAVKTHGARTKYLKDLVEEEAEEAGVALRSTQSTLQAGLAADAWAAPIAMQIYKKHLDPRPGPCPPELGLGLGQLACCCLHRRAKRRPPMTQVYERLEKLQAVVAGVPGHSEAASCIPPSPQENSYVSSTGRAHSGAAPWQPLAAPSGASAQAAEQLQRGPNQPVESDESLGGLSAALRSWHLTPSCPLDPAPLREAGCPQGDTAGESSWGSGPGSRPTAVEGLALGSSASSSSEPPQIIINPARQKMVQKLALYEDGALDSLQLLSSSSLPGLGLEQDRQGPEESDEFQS

IRAK1 activation (phosphorylation of IRAK1, western blot) (IRAK1; 1 μM or 10 μM final concentrations, indicated time-points, vs DMSO): reduces IRAK1 activation
activation of IRAK1 (phosphorylation of IRAK1, western blot) (IRAK1; 10 μM, 24-72 hours post-treatment): attenuated activation of IRAK1
Compound: O=C(Nc1nc2ccccc2n1CCN1CCOCC1)c1cccc([N+](=O)[O-])c1 [IRAK-1/4 inhibitor, N-(2-morpholinylethyl)-2-(3-nitrobenzoylamido)-benzimidazole]
kinase selectivity (IRAK1 and IRAK4): selective for IRAK1 and IRAK4 and shows little specificity for other kinases
apoptosis in melanoma cells (melanoma cells): increase apoptosis
signaling and cell viability in MDS (MDS): inhibit signaling and cell viability
apoptosis (cleaved caspase-3) (UMSCC1 cells): Significantly increased apoptosis
apoptosis (cleaved caspase-3) (UMSCC1 cells; listed as IRAK1-inhibitor): increases apoptosis
